# Assay results reported in patent publication US7592154B2, “Modulating SOS response induction by antimicrobial agents” (The Board of Trustees of the Leland Stanford Junior …, priority 2005, dated 2009).
# Key:
# [1] = system: dpiB promoter (dpiBA operon); assay: dpiB/lacZ reporter fusion (pHI1508), β-galactosidase synthesis; format: cell-based, E. coli; conditions: ampicillin 10 μg/ml, 2 hours, 37° C.
# [2] = system: dpiB promoter (dpiBA operon); assay: as above; format: cell-based, E. coli; conditions: for expression of the dpi operon (lacZ reporter fusion to the dpiB promoter): E. coli UT481 pHI1508, 30° C., antibiotics at approximately twice the MIC (FIG. 2A)
# Experimental: FIGS. 2A-2C. […] (A) Expression of the dpi operon as measured in lacZ^− E. coli strain UT481 by a lacZ reporter fusion to the dpiB promoter on pHI1508 [in Miller units]. Bacteria were grown at 30° C. with or without (black squares) antibiotics. […] All antibiotics were added at approximately twice the MIC value for E. coli. All points represent the average of at least three separate experiments. (B) Induction of dpiB/lacZ (as measured by β-galactosidase expression calculated in Miller units) in E. coli JOE339, a lacZ^− mutant strain that carries an ftsl^ts mutation. […] (C) Same as (B) but in MC4100, the parent of JOE339. For (B) and (C), bars indicate SD.
# We wished to identify stimuli that activate the dpiBA operon; to monitor such activation, we fused a Hind III-Sma I DNA segment containing the region 5′ to dpiB to a lacZ reporter gene fragment (pHI1508 in FIG. 1A) pHI1508 carries a HindIII-SmaI fragment containing the dpiBA operator/promoter and the first 1219 nucleotides of dpiB (indicated by the heavy bar), inserted into the StuI-HindIII sites of pHI1496, fusing it to the lacZ reporter gene (S1). β-Galactosidase synthesis from this construct was investigated under a variety of growth-limiting conditions known to activate two-component systems and/or the SOS response (including growth in media containing different carbon sources; starvation for O2, PO4, or carbon; heat or cold shock; high salt; exposure to ultraviolet light; culture in stationary phase or in conditioned media; and concentration to a high cell density).
# [3] = system: pabA promoter (gene up-regulated by DpiA); assay: pabA/lacZ fusion (pHI1627), β-galactosidase production; format: cell-based, E. coli; conditions: ampicillin 10 μg/ml, 2 hours, 37° C.
# Text: A library of E. coli promoters fused to a lacZ gene fragment was constructed as follows: SC1088 chromosomal DNA was partially digested with Sau3AI and 1-2 kb fragments were gel extracted, purified, and ligated to the BamHI site of pHI1496, a lacZ expression vector conferring chloramphenicol resistance (S1). […] Three clones were sequenced and found to contain a 5 kb insert in which the melR promoter region was fused to lacZ (pHI1626), a 300 bp fragment that includes the promoter region of pabA (pHI1627), and a 2.5 kb insert containing the 57-minute region of the E. coli chromosome (pHI1628).
# [4] = system: RecA protein; assay: Western blot with anti-RecA antibody; format: cell-based, E. coli; conditions: one hour of exposure, relative to absence of induction
# Text: Chemiluminescence of bands was quantitated using a BioRad Versadoc 1000 instrument.
# [5] = system: dpiBA transcripts; assay: quantitative RT-PCR of dpiBA transcripts; format: cell-based, E. coli; conditions: SC1088, 30° C., ampicillin 4 μg/ml for 4 hours (FIG. 1C)
# Text: (§1) FIGS. 1A-1C. Structure and transcripts of the dpiBA operon. (A) The dpiB and dpiA genes are aligned in the 5′-3′ direction; citC is 5′ of the dpiBA promoter/operator region and is transcribed divergently from it. The segment of the dpiBA operon included in plasmid pHI1508 is indicated. (B) Agarose gel electrophoresis showing bands generated by reverse transcription PCR amplification of E. coli SC1088 RNA using pairs of oligonucleotide primers corresponding to sequences within dpiB (lane 1, primers a+b), dpiA (lane 2, primers c+d), or both genes (lane 3, primers a+d). Locations of primer sequences are indicated in (A). […] Amounts of template RNA used and loaded onto gels were equal, as assessed by intensity of 16S rRNA bands (bottom panel).
# [6] = system: citC gene; assay: quantitative RT-PCR of citC expression; format: cell-based, E. coli; conditions: SC1088, 30° C., ampicillin 4 μg/ml for 4 hours (FIG. 1C)
# Text: as §1
# [7] = system: E. coli SC1088 wild-type and dpiA, recA, sfiA null mutants; assay: survival of bacterial cultures exposed to antibiotic (cfu counting); format: cell-based; conditions: for effectiveness (survival) in recA mutant cells versus wild type SC1088: naladixic acid 5 μg/ml, pipericillin 1 μg/ml, kanamycin 5 μg/ml (FIGS. 5A-5C)
# Experimental: FIG. 4. Effect of SOS response induction on survival of bacterial cells expressing DpiA during β-lactam exposure. […] Survival data are also shown for strains containing null mutations in recA (open diamonds), dpiA (open circles), or sfiA (open triangles). […] Percent survival was determined by counting of colony forming units (cfu's), at least 200 colonies were counted per time point, and plotted as a function of exposure time before exposure or after exposure to antibiotics.
# Because β-lactam antibiotics kill only bacteria that are dividing, we hypothesized that the ability of these drugs to induce the SOS response, and consequently delay cell division by increasing the expression of sfiA, may provide temporary protection from β-lactam lethality.
# The experiments shown in FIG. 4 were repeated with the antibiotics: naladixic acid, at 5 μg/ml; pipericillin, at 1 μg/ml; and kanamycin at 5 μg/ml. As shown in FIGS. 5A-5C, the black squares are wild type cells, strain SC1088, the green circles are the dpiA null strain in that background, and the red diamonds are the recA mutation in that background.
# [8] = system: SOS-regulated promoter of the sfiA gene; assay: sfiA/lacZ fusion, measure of SOS response; format: cell-based, E. coli
# Text: FIGS. 3A-3B. SOS response induced by PBP3 inactivation. […] Both (A) and (B) are averages of three separate experiments. Strains were constructed by P1 transduction. Strain 1088 was transduced with phage P1 from E. coli strains containing recA::Tn10(S3) and lexA71::Tn5 (from Mary Berlyn, CGSC). Strain BR5171 is BR3151 (S4) containing a kanamycin resistance gene introduced into the dpiA locus to create a null mutation; another BR3151 derivative, BR7171, contains a Tn10 insertion in the recA locus to create a null mutation. […] An sfiA/lacZ fusion closely linked to a kanamycin resistance marker (S5) was incorporated into the chromosome of ftsIts strain JOE339 and a JOE339 derivative containing a chloramphenicol resistance gene in the dpiA gene (S1).
# A biological consequence of DpiA overexpression is induction of the SOS response; the extent of such induction can be determined by β-galactosidase synthesis from a lacZ fusion with the SOS-regulated promoter of the sfiA gene [e.g. Bacolla et al. (2001) J. Biol. Chem. 276, 18579; Hendricks et al. (2000) Mol. Microbiol. 36, 973], which prevents FtsZ polymerization and inhibits cell division when SOS is activated.
# The dependence of β-lactam/PBP3-mediated SOS induction on dpiA contrasted with the lack of effect of the dpiA mutation on RecA expression induced by the DNA damaging agent mitomycin C, indicating the distinctive nature of the cell wall-mediated and DNA damage-mediated paths to SOS induction.
# [9] = system: E. coli PBPs; conditions: cited from earlier work
molecule,measurement,setting,value
CC1(C)S[C@@H]2[C@H](NC(=O)[C@H](N)c3ccccc3)C(=O)N2[C@H]1C(=O)O [ampicillin],β-Galactosidase production,[1]; WT strain 1088 + pHI1508,345 ± 50 Miller units
same,β-Galactosidase production,[1]; dpiA null mutant + pHI1508,113 ± 15 Miller units
same,β-Galactosidase production,[1]; lexA null mutant + pHI1508,110 ± 10 Miller units
same,β-Galactosidase production,[1]; recA null mutant + pHI1508,80 ± 8 Miller units
same,expression of the dpi operon (lacZ reporter fusion to the dpiB promoter),[2],stimulated
same,induction of the dpi operon,[2]; ampicillin resistant bacteria carrying a plasmid borne gene encoding β-lactamase,not observed
same,β-Galactosidase production,[3]; WT strain 1088 + pHI1627,185 ± 20 Miller units
same,β-Galactosidase production,[3]; dpiA null mutant + pHI1627,18 ± 1 Miller units
same,RecA protein increase,[4]; dpiA::Km null mutant,no increase
same,RecA protein increase,"[4]; wt strain 1088, 4 μg/ml",1.9±0.4 fold
same,increase in dpiBA transcripts,[5],fourfold
same,increase in expression of citC gene,[6],threefold
same,cells unable to form colonies,"[7]; cells mutated in dpiA, recA, or sfiA, 1 hour exposure, 3 μg/ml",90%
same,exposure required for the same extent of killing (90%) of wild-type cells,[7]; 3 μg/ml,4 h
same,exposure required for the same extent of killing (90%) of wild-type cells,[7]; 9 μg/ml,1 h
same,lacZ expression from sfiA/lacZ fusion,"[8]; BR3151, ampicillin 4 μg/ml (FIG. 3A)",increased lacZ expression
same,sfiA/lacZ expression,"[8]; bacteria containing a dpiA null mutation, ampicillin 4 μg/ml (FIG. 3A)",no change
same,effect on expression of the sfiA/lacZ fusion,"[8]; recA or lexA mutants, ampicillin treatment (FIG. 3A)",prevented the effects
same,binding to E. coli PBPs,[9],binds to all 12 E. coli PBPs
CO/N=C(\C(=O)N[C@@H]1C(=O)N2C(C(=O)O)=C(COC(N)=O)CS[C@H]12)c1ccco1 [cefuroxan],expression of the dpi operon (lacZ reporter fusion to the dpiB promoter),[2],stimulated
CC1=C(C(=O)O)N2C(=O)[C@@H](NC(=O)[C@H](N)c3ccccc3)[C@H]2SC1 [cephalexin],expression of the dpi operon (lacZ reporter fusion to the dpiB promoter),[2],stimulated
same,binding to E. coli PBPs,[9],bind only to PBP3
CO[C@@]12[C@H](COC(N)=O)C3=C(C(=O)C(C)=C(N)C3=O)N1C[C@@H]1N[C@@H]12 [mitomycin C],RecA protein increase,[4]; dpiA::Km null mutant,2.0±0.3 fold
same,RecA protein increase,"[4]; wt strain 1088, 4 μg/ml",1.5±0.2 fold
CCn1cc(C(=O)O)c(=O)c2ccc(C)nc21 [nalidixic acid],effectiveness (survival) in recA mutant cells versus wild type SC1088,[7],more effective
CCN1CCN(C(=O)N[C@@H](C(=O)N[C@@H]2C(=O)N3[C@@H]2SC(C)(C)[C@@H]3C(=O)O)c2ccccc2)C(=O)C1=O [pipericillin],expression of the dpi operon (lacZ reporter fusion to the dpiB promoter),[2],stimulated
same,survival relative to the number before addition of antibiotic,"[7]; dpiA mutant bacteria, overnight exposure, 2 μg/ml",0.001%
same,effectiveness (survival) in recA mutant cells versus wild type SC1088,[7],more effective
same,surviving wild-type bacteria versus dpiA mutant bacteria,"[7]; overnight exposure, 2 μg/ml",10 times
same,survival relative to the number before addition of antibiotic,"[7]; wild-type bacteria, overnight exposure, 2 μg/ml",0.01%
same,binding to E. coli PBPs,[9],bind only to PBP3
penicillin,expression of the dpi operon (lacZ reporter fusion to the dpiB promoter),[2],stimulated
